The source of these data is article PMC4579270, “Identification and Characterization of an Irreversible Inhibitor of CDK2” (Chemistry & Biology, 2015).

Structures are written as SMILES.

In one assay the target is CDK2-Cyclin A (Homo sapiens, UniProt P24941). Nature of the assay: ESI-MS of covalent adduct. Also noted: made in house; host or cells: Escherichia coli (CDK2 co-expressed with S. cerevisiae CAK1). As to conditions: wild-type CDK2/cyclin A, overnight incubation, vs control. The protocol:
To determine whether NU6300 binds covalently to CDK2, recombinant CDK2/cyclin A was incubated overnight with NU6300 and then analyzed by electrospray ionization mass spectrometry (ESI-MS) (Figure S1A). […]
(§1) Protein expression and purification
(§2) Site-directed mutagenesis of CDK2 was performed using the QuikChange II kit (Stratagene) following the manufacturer’s instructions and verified by DNA sequencing.
Wild-type CDK2 phosphorylated at Thr160, untagged human cyclin A2 (residues 174-432), S. cerevisiae GST–CAK, GST–3C-protease and GST–pRb (residues 792–928) were expressed and purified as previously described (Brown et al., 1999a; Brown et al., 1999b; Welburn and Endicott, 2005). GST-CDK2 mutants were expressed and purified as described (Welburn and Endicott, 2005) and subsequently phosphorylated in vitro by GST-CAK essentially as described in (Morris et al., 2002) except that multiple CAK aliquots were required to enhance the levels of CDK2 Thr160 phosphorylation. […]
(§3) CDK2/cyclin A (200 µM) was incubated overnight with 1 mM inhibitor or DMSO, and then dialysed for 8 h with regular replacement of dialysis buffer into HEPES-buffered saline (50 mM HEPES, pH 7.5, 250 mM NaCl, 0.02% MTG). […] Reactions were stopped by addition of SDS-PAGE loading buffer and analyzed by SDS-PAGE. […]

The test system of the next assay is AMPK (hum). Description: Dundee kinase screen re-test (standard format and 4 hour pre-incubation). Format: biochemical, human. The protocol:
(§4) Prior to determining its cellular activity, we carried out a screen to assess its selectivity against a panel of 131 protein kinases under conditions that would not distinguish between a reversible or irreversible mode of action. […] These 13 kinases and 29 additional kinases, selected for their known sensitivity to other inhibitors within the purine series, were then tested in a modified screening format in which the assay was repeated following a 4-hr pre-incubation (Table S3B). […] However, conformational flexibility around the active site may promote such an interaction with a residue from another part of the structure ([Martin et al., 2012]).
(§5) Table S3, Related to Figure 4. NCL-0006300 protein kinase selectivity. […]
Dundee protein kinase screen (Bain et al., 2007). […]
(§6) (B) Selected kinases were re-tested in the Dundee kinase screen against NU6300 at a single concentration of 0.5 µM both in the standard assay format and following a 4 hour pre-incubation in the presence of NU6300. Kinases which have very low activity after the 4 hour incubation so that results might not be wholly reliable are boxed in salmon. Kinases where the activity after a 4 hour pre-incubation is < 50% that in the standard assay format are highlighted in red.

The subject of another assay is GCK (MAP4K3). Described as above. Type of assay: biochemical. The protocol: as §4, §5, §6
Another assay concerns the target T1, CDK2^K88E/cyclin A (Homo sapiens, UniProt P24941, K88E).
T1 construct: GST (N, cleaved yes); made in house; host or cells: Escherichia coli; phosphorylated in vitro by GST-CAK
Description: Bandshift kinase assay after incubation and dialysis, mutant. Format: biochemical. The protocol:
The bandshift experiment was repeated after incubating CDK2^K88E/cyclin A and CDK2^K89V/cyclin A with NU6300, NU6310, or DMSO followed by dialysis to remove unbound inhibitor (Figure S2G).
Figure S2, Related to Figure 3. Identification of the site of CDK2 modification by NU6300. (A-G) Single site CDK2 mutants CDK2D86A, CDK2K88E, and CDK2K89V identify the site of CDK2 modification by NU6300. These mutations change the CDK2 sequence to that of CDK7 and are known not to disrupt the CDK2 fold. Mass spectra of CDK2 mutants: […]
(G) Protein kinase activity of authentic CDK2 and single site CDK2 mutants following incubation with NU6300 or NU6310. Samples were taken at the indicated number of minutes after initiation of the reaction. Note that compared to authentic CDK2, the single site Lys88 and Lys89 mutants have a slower rate of reaction (Compare LHS panels). This drop in activity was expected because whereas the wild type protein was produced by co-expression with S. cerevisiae […]
the mutant proteins were activated by S. cerevisiae CAK1 phosphorylation in vitro– a relatively inefficient process as judged from the results of ESI-MS (Table S1). (H) NU6300 […]
NU6300 carbon atoms are coloured green. Rb, retinoblastoma protein, Phospho-Rb, […]
as §1, §2
Wild-type CDK2 phosphorylated at Thr160, untagged human cyclin A2 (residues 174-432), S. cerevisiae GST–CAK, GST–3C-protease and GST–pRb (residues 792–928) were expressed and purified as previously described (Brown et al., 1999a; Brown et al., 1999b; Welburn and Endicott, 2005). […]
as §3

The target in another assay is CDK2 (Homo sapiens, UniProt P24941). Nature of the assay: CDK2 kinase inhibition assay. Format: biochemical. The note with it: read-out: CDK2 median inhibitory concentration [IC50]. The protocol:
CDK2/cyclin A kinase assays were carried out using a method modified from [Brown et al. (1999)] or by using the ADP-Glo assay (Promega) essentially as described by the manufacturers. A full description of the assay formats is provided in the Supplemental Experimental Procedures.

Take `C=CS(=O)(=O)c1ccc(Nc2nc(OCC3CCCCC3)c3nc[nH]c3n2)cc1` [NU6300, 6-(cyclohexylmethoxy)-N-(4-(vinylsulfonyl)phenyl)-9H-purin-2-amine]: the “increase in the mass of CDK2 (ESI-MS)” value at CDK2-Cyclin A came out at 414 Da. Besides, the “%Remaining activity at 0.5µM NU6300 - 4hr RT preincubation” value with AMPK (hum) (4hr RT preincubation) was determined as 73%; in the assay with GCK (MAP4K3) (0.5µM, 4hr RT preincubation) it was 29%. For the same compound, the “%Remaining activity at 0.5µM NU6300 - Usual assay format” value in the assay with AMPK (hum) (usual format) is reported as 70%; in the assay on GCK (MAP4K3) (0.5µM, usual format) it was 89%. Further, the “additional loss of activity after pre-incubation” value with GCK (MAP4K3) (4-hr pre-incubation vs usual format, 0.5 µM) was more than 50%.
With `CCS(=O)(=O)c1ccc(Nc2nc(OCC3CCCCC3)c3nc[nH]c3n2)cc1` [NU6310, 6-(cyclohexylmethoxy)-N-(4-(ethylsulfonyl)phenyl)-9H-purin-2-amine], the “CDK2 activity against Rb after incubation with inhibitor and dialysis” value on CDK2^K88E/cyclin A was “recovered their activity”. Further, the IC50 on CDK2 was determined as 160 nM.
